We go through nine substances from paper PMC2364987 (Metal-Based Drugs, 1995).

A word on the IC50: it is the midpoint of a concentration-inhibition curve.

One experiment has as its target T1, Bovine CA II (Bos taurus, UniProt P00921).
T1 construct: purchased Sigma Chemical Co
In words: CA II inhibition, CO2 hydration, Maren's micromethod (E-I technique). In kind it is biochemical. The conditions noted are these: 0C, veronal buffer, calculated as for the monomer for complexes. The source says:
(§1) Introduction Sulfonamide inhibitors of the zinc enzyme carbonic anhydrase (CA, EC 4.2.1.1) are widely used pharmacological agents in the treatment of a variety of disorders. […] 3,11 As we are also interested in exploring the coordination chemistry of sulfonamide CA inhibitors, in addition to their pharmacological applications, 1,4,11 a study is reported here on the preparation and characterization of metal complexes containing 4 and divalent metal ions such as Co(II), Ni(II), Cu(II), Zn(II), and Cd(II). In fact 4 is the first disulfonamide for which such a study was done. Here we report the data on these new derivatives, as well as their inhibition properties against two isozymes, CA I and CA II. Mention should be made that CA I inhibition data for the parent ligand, 1,3,4-thiadiazole-2,5- disulfonamide are published here for the first time. Materials and Methods Melting points were recorded on a heating plate microscope and are not corrected. FTIR spectra were obtained on thin films of pure compound, with a Perkin Elmer 1600 instrument, in the range 200 4000 cm"1. Electronic spectra were obtained by the diffuse reflectance technique in MgO as reference, with a Perkin Elmer Lambda 17 apparatus. Conductimetric measurements were done in DMF solutions, at 25C (concentrations of 1 mM of complex) with a Fisher conductimeter. 1n- and 13C-NMR data were obtained in DMSO-d as solvent with a Varian Gemmini 300 spectrometer. Chemical shifts are expressed as values relative to tetramethylsilane as internal standard. […] Thermogravimetric measurements were done in air, at a heating rate of 10C/min., with a Perkin Elmer 3600 thermobalance. Sulfonamide 4 used in the syntheses was prepared as described earlier by us.11 Metal salts, organic reagents used for preparing the ligand 4 and solvents were from Aldrich and were used without additional purification. Bovine CA II and human CA I was from Sigma Chemical Co. Inhibitors were assayed by […] micromethod 12, in the conditions of the E-I (enzyme-inhibitor) technique, at 0C in veronal buffer. IC0 values represent the molarity of inhibitor producing a 50% decrease of CA specific activity for the CO2 hydration reaction. […] The precipitated complexes were filtered and air dried. […] According to our method 6a the coordination compounds of sulfonamides were prepared starting from the sodium salt of the ligand, in aqueous milieu, whereas according to Borras' group they were obtained in the presence of ammonia (or other amines, such as pyridine, ethylenediamine, imidazole, etc), in alcohol as solvent.14 In such cases, the amines are also coordinated to the metal ions, in addition to the sulfonamide ligands. In the present study, we prepared and characterized both types ofderivatives, working with the sodium salt of4, but also with the ligand in the presence of ammonia, in both cases in a 1:1 molar ratio ligand:metal salt. […] Table I: Complexes 5-14 prepared and their elemental analysis data (S stands for the doubly deprotonated species of sulfonamide 4). […] Table II: Spectroscopic, magnetic and conductimetric data for complexes 5-10 as compared to ligands 4. Comp. IR.

Another experiment has as its target T2, human CA I (Homo sapiens, UniProt P00915).
T2 construct: purchased Sigma Chemical Co
In words: CA I inhibition, CO2 hydration, Maren's micromethod (E-I technique). In kind it is biochemical. The settings on record: 0C, veronal buffer, calculated as for the monomer for complexes.
From the text: as §1

T1 sequence (P00921 whole entry): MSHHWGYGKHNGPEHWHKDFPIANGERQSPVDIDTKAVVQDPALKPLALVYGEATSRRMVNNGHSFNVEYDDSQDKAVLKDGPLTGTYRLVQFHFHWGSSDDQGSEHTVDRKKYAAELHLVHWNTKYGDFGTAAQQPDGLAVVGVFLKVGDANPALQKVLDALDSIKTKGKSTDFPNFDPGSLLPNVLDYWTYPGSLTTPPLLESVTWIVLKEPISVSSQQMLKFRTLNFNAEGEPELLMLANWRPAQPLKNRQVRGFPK
T2 sequence (P00915 whole entry): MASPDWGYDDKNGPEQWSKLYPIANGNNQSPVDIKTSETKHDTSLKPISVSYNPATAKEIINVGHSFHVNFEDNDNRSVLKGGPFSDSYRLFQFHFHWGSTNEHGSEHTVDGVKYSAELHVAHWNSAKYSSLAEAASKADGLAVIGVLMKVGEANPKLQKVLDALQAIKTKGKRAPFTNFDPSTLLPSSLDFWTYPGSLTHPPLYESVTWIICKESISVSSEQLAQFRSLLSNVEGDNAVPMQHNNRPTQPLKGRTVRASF

[CdS(NH3)2]o [Compound 14]: the IC50 at Bovine CA II was 19 nM; at human CA I, 185 nM.

For [CoS(NH3)2]n [Compound 10], the IC50 at Bovine CA II is 42 nM; at human CA I it was 360 nM.

On to [CdS(OH2)2] [Compound 9], for which the half-maximal inhibitory concentration (IC50) was 17 nM on Bovine CA II and 180 nM at human CA I.

With [NiS(OH2)2]n [Compound 6], the IC50 on Bovine CA II is 45 nM; on human CA I, 390 nM.

As to [CuS(OH2)2]n [Compound 7], the figures for the IC50 on Bovine CA II and on human CA I were 24 nM and 175 nM, respectively.

As for [ZnS(NH3)2] [Compound 13], the IC50 was 22 nM at Bovine CA II and 205 nM at human CA I.

As to [ZnS] [Compound 8], the values for the IC50 at Bovine CA II and on human CA I were 28 nM and 210 nM, respectively.

As to [CuS(NH3)2] [Compound 12], the values for the IC50 on Bovine CA II and at human CA I were 27 nM and 185 nM, respectively.

As for [NiS(NH3)2], [Compound 11], the IC50 on Bovine CA II is 41 nM; at human CA I it was 440 nM.
